Test results taken from patent US10100048B2, “Heterocyclic compounds and their use as glycogen synthase kinase-3 inhibitors” (AbbVie Deutschland GmbH & Co. KG, priority 2010, dated 2018).
Structures can show the parent of a compound that is named as a salt.

The molecules below were run against human Glycogen Synthase Kinase-3 beta (hGSK-3β) (Homo sapiens (Human), UniProt P49841) (assay: Biochemical hGSK-3Beta Assay (33P-ATP phosphorylation of biotinylated peptide substrate, Flash-plate)). Details: 0.0125 U hGSK-3β, 10 μM ATP, 1 μM substrate, 30 minutes at room temperature; read-out: GSK-3β IC50.
Sequence of human Glycogen Synthase Kinase-3 beta (hGSK-3β) (P49841 whole entry): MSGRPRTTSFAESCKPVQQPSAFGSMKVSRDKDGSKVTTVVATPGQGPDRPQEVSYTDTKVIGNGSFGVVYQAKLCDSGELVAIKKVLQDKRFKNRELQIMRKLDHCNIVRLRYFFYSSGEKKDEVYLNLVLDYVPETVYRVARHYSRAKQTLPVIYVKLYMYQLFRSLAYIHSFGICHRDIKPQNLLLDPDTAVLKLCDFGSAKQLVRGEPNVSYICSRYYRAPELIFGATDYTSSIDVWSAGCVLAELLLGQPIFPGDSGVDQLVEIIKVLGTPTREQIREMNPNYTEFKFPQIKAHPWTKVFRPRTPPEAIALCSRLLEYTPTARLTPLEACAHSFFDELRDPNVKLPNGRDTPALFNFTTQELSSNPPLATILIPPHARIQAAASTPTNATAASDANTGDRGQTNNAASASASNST
Procedure: Methods—Biochemical hGSK-3Beta Assay
Compounds were tested for their ability to inhibit human Glycogen Synthase Kinase-3 beta (hGSK-3β) to phosphorylate biotin-[…](pS)EDEEE. Compounds were incubated with 0.5 μCi 33P-ATP, 10 μM ATP, 0.0125 U hGSK-3β (Upstate cell signaling solutions) and 1 μM substrate (biotin-[…](pS)EDEEE) in 50 mM HEPES, 10 mM MgCl2, […], 1 mM DTT, 0.0075% Triton, 2% DMSO (total volume 50 μL) for 30 minutes at room temperature. The incubation was stopped by addition of an equal volume of 100 mM EDTA, 4M NaCl. 80 μL of this mixture was added to streptavidin-coated Flash-plates (PerkinElmer). Following a wash step, 33P incorporation was quantified on a MicroBeta microplate liquid scintillation counter (Perkin Elmer). IC50s were determined by fitting a sigmoidal dose-response curve to the counts obtained at the different concentrations in GraphPad Prism.

Question: Which IC50 does the source give for N#Cc1ccc2c(c1)C(c1ccc3c(n1)CCCC3O)C(=O)N2 (centres unmarked) [Example 1, 3-(5-Hydroxy-5,6,7,8-tetrahydroquinolin-2-yl)-2-oxoindoline-5-carbonitrile] here?
Answer: The IC50 was under 100 nM.

Question: With N#Cc1ccc2c(c1)C(c1ccc3c(n1)CCNC3)C(=O)N2 (centres unmarked) [Example 2, 2-Oxo-3-(5,6,7,8-tetrahydro-1,6-naphthyridin-2-yl)indoline-5-carbonitrile] as the molecule, how does the IC50 read?
Answer: The IC50 was under 100 nM.

Question: Which IC50 does the source give for CC(C)(C)OC(=O)N1CCc2nc(C3C(=O)Nc4ccc(C#N)cc43)ccc2C1 (centres unmarked) [Example 2.2, tert-Butyl 2-(5-cyano-2-oxoindolin-3-yl)-7,8-dihydro-1,6-naphthyridine-6(5H)-carboxylate] here?
Answer: Its IC50 is under 100 nM.

Question: How did the IC50 turn out when N#Cc1ccc2c(c1)C(c1ccc3c(n1)CNC3)C(=O)N2 (centres unmarked) [Example 5, 3-(6,7-Dihydro-5H-pyrrolo[3,4-b]pyridin-2-yl)-2-oxoindoline-5-carbonitrile hydrochloride] was run?
Answer: The IC50 was under 100 nM.

Question: With COC1CCCc2nc(C3C(=O)Nc4ccc(C#N)cc43)ccc21 (centres unmarked) [Example 6, 3-(5-Methoxy-5,6,7,8-tetrahydroquinolin-2-yl)-2-oxoindoline-5-carbonitrile] as the molecule, how does the IC50 read?
Answer: Its IC50 is under 100 nM.
